US10005774B2, “Syk inhibitors” (Gilead Sciences, Inc., priority 2013, dated 2018)

target: Syk (Homo sapiens, UniProt P43405); assay: High Throughput Syk Biochemical Assay (KinEASE TR-FRET); settings: TABLE D, 20 μM ATP, 1 μM biotinylated peptide, 0.015 nM Syk, 30 min at room temperature, read-out: IC50
Outline: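 Two-step endpoint TR-FRET (KinEASE) measured Syk phosphorylation of an XL665-labelled peptide, detected with europium anti-phosphotyrosine antibody. Compounds were serially diluted in DMSO.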

Row | IC50 [nM] | SMILES
1 | 1.5 | C[C@H](Oc1cc(-c2cnc(C(C)(C)C)s2)cc2ncsc12)[C@@H]1CNC(=O)C1 (stereo in doubt) [(S)-4-((S)-1-((5-(2-(tert-butyl)thiazol-5-yl)benzo[d]thiazol-7-yl)oxy)ethyl)pyrrolidin-2-one]
2 | 3.39 | COc1ccc(-c2cc3ncn(C(C)C)c3c(O[C@H](C)[C@H]3CNC(=O)C3)n2)cc1OC [(R)-4-((R)-1-(6-(3,4-dimethoxyphenyl)-3-isopropyl-3H-imidazo[4,5-c]pyridin-4-yloxy)ethyl)pyrrolidin-2-one]
3 | 30.6 | C[C@@H](Oc1nc(-c2ccc3c(c2)C(=O)NCCO3)cc2ncn(C)c12)[C@H]1CNC(=O)C1 [7-(3-methyl-4-((R)-1-((R)-5-oxopyrrolidin-3-yl)ethoxy)-3H-imidazo[4,5-c]pyridin-6-yl)-3,4-dihydrobenzo[f][1,4]oxazepin-5(2H)-one]
4 | 3.36 | CCn1ccc(-c2cc(O[C@H](C)[C@H]3CNC(=O)C3)c3scnc3c2)n1 [(R)-4-((R)-1-((5-(1-ethyl-1H-pyrazol-3-yl)benzo[d]thiazol-7-yl)oxy)ethyl)pyrrolidin-2-one]
5 | 5.16 | C[C@@H](Oc1cc(-c2ccc(N3CCN(C(=O)OC(C)(C)C)CC3)cn2)cc2ncsc12)[C@H]1CNC(=O)C1 (stereo in doubt) [tert-butyl 4-(6-(7-((R)-1-((R)-5-oxopyrrolidin-3-yl)ethoxy)benzo[d]thiazol-5-yl)pyridin-3-yl)piperazine-1-carboxylate]
6 | 0.697 | CC(C)n1cc(-c2cc(O[C@H](C)[C@H]3CNC(=O)C3)c3scnc3c2)cn1 (stereo in doubt) [(R)-4-((R)-1-((5-(1-isopropyl-1H-pyrazol-4-yl)benzo[d]thiazol-7-yl)oxy)ethyl)pyrrolidin-2-one]
7 | 2.52 | CC(C)n1ccc(-c2cc(O[C@H](C)[C@H]3CNC(=O)C3)c3scnc3c2)n1 (stereo in doubt) [(R)-4-((R)-1-((5-(1-isopropyl-1H-pyrazol-3-yl)benzo[d]thiazol-7-yl)oxy)ethyl)pyrrolidin-2-one]
8 | 1.73 | C[C@@H](Oc1cc(-c2ccc(N3CCN(C4COC4)CC3)cn2)cc2ncsc12)[C@H]1CNC(=O)C1 (stereo in doubt) [(R)-4-((R)-1-((5-(5-(4-(oxetan-3-yl)piperazin-1-yl)pyridin-2-yl)benzo[d]thiazol-7-yl)oxy)ethyl)pyrrolidin-2-one]
9 | 513 | COc1ccc(-c2cc3nc[nH]c3c(O[C@H](C)[C@H]3CNC(=O)C3)n2)cc1OC [(R)-4-((R)-1-(6-(3,4-dimethoxyphenyl)-3H-imidazo[4,5-c]pyridin-4-yloxy)ethyl)pyrrolidin-2-one]
10 | 5.31 | Cc1cc(-c2cc3ncn(C)c3c(O[C@H](C)[C@H]3CNC(=O)C3)n2)ccc1N(C)C [(R)-4-((R)-1-(6-(4-(dimethylamino)-3-methylphenyl)-3-methyl-3H-imidazo[4,5-c]pyridin-4-yloxy)ethyl)pyrrolidin-2-one]
11 | 0.693 | C[C@@H](Oc1cc(-c2cnn(C3CCC3)c2)cc2ncsc12)[C@H]1CNC(=O)C1 (stereo in doubt) [(R)-4-((R)-1-((5-(1-cyclobutyl-1H-pyrazol-4-yl)benzo[d]thiazol-7-yl)oxy)ethyl)pyrrolidin-2-one]
12 | 19.5 | COc1ccc(-c2cc3ncn(CC(F)F)c3c(O[C@H](C)[C@H]3CNC(=O)C3)n2)cc1OC [(R)-4-((R)-1-(3-(2,2-difluoroethyl)-6-(3,4-dimethoxyphenyl)-3H-imidazo[4,5-c]pyridin-4-yloxy)ethyl)pyrrolidin-2-one]
13 | 10.2 | C[C@@H](Oc1cc(-c2cnn(CC(F)F)c2)cn2nccc12)[C@H]1CNC(=O)C1 [(R)-4-((R)-1-((6-(1-(2,2-difluoroethyl)-1H-pyrazol-4-yl)pyrazolo[1,5-a]pyridin-4-yl)oxy)ethyl)pyrrolidin-2-one]

Second part, the compound before the results:

Row | SMILES | IC50 [nM]
14 | Cn1cnc2cc(-c3cnn(C(C)(C)C)c3)nc(O[C@H](CC(F)F)[C@H]3CNC(=O)C3)c21 [(R)-4-((R)-1-(6-(1-tert-butyl-1H-pyrazol-4-yl)-3-methyl-3H-imidazo[4,5-c]pyridin-4-yloxy)-3,3-difluoropropyl)pyrrolidin-2-one] | 94.8
15 | C=CC[C@@H](Oc1nc(-c2cnn(C(C)(C)C)c2)cc2ncn(C)c12)[C@H]1CNC(=O)C1 | 18.9
16 | C[C@@H](Oc1nc(-c2cnn(C(C)(C)C)c2)cc2ncn(C(F)F)c12)[C@H]1CNC(=O)C1 [(R)-4-((R)-1-(6-(1-tert-butyl-1H-pyrazol-4-yl)-3-(difluoromethyl)-3H-imidazo[4,5-c]pyridin-4-yloxy)ethyl)pyrrolidin-2-one] | 1.22
17 | COc1ccc(-c2cc3ncn(C(F)F)c3c(O[C@H](C)[C@H]3CNC(=O)C34CC4)n2)cc1OC [(R)-7-((R)-1-((3-(difluoromethyl)-6-(3,4-dimethoxyphenyl)-3H-imidazo[4,5-c]pyridin-4-yl)oxy)ethyl)-5-azaspiro[2.4]heptan-4-one] | 38

same assay, conditions: table 'ALL NEW COMPOUNDS IN 2014', 20 μM ATP, 1 μM biotinylated peptide, 0.015 nM Syk, 30 min at room temperature, read-out: Syk IC50

Row | IC50 [nM] | SMILES
18 | 2.46 | CCOc1ccc(-c2cc3ncn(C4CC4)c3c(O[C@H](C)[C@H]3CNC(=O)C3)n2)cc1OC [(R)-4-((R)-1-((3-cyclopropyl-6-(4-ethoxy-3-methoxyphenyl)-3H-imidazo[4,5-c]pyridin-4-yl)oxy)ethyl)pyrrolidin-2-one]
19 | 411 | C[C@@H](Oc1cc(-c2ccnn2C2CCOCC2)cc2ncn(C3CC3)c12)[C@H]1CNC(=O)C1 [(R)-4-((R)-1-((1-cyclopropyl-5-(1-(tetrahydro-2H-pyran-4-yl)-1Hpyrazol-5-yl)-1H-benzo[d]imidazol-7-yl)oxy)ethyl)pyrrolidin-2-one]
20 | 1.75 | C[C@@H](Oc1nc(-c2ccc3c(c2)NC(=O)C3)cc2ncn(C3CC3)c12)[C@H]1CNC(=O)C1 [6-(3-cyclopropyl-4-((R)-1-((R)-5-oxopyrrolidin-3-yl)ethoxy)-3H-imidazo[4,5-c]pyridin-6-yl)indolin-2-one]

Second part, the compound before the results:

Row | SMILES | IC50 [nM]
21 | C[C@@H](Oc1nc(-c2ccc(N3CCN(S(=O)(=O)C4CC4)CC3)cc2)cc2ncn(C3CC3)c12)[C@H]1CNC(=O)C1 [(R)-4-((R)-1-((3-cyclopropyl-6-(4-(4-(cyclopropylsulfonyl)piperazin-1-yl)phenyl)-3H-imidazo[4,5-c]pyridin-4-yl)oxy)ethyl)pyrrolidin-2-one] | 1.3
22 | C[C@@H](Oc1nc(-c2cnc(C3CCOCC3)s2)cc2ncn(C3CC3)c12)[C@H]1CNC(=O)C1 [(R)-4-((R)-1-((3-cyclopropyl-6-(2-(tetrahydro-2H-pyran-4-yl)thiazol-5-yl)-3H-imidazo[4,5-c]pyridin-4-yl)oxy)ethyl)pyrrolidin-2-one] | 3.54
23 | C[C@@H](Oc1nc(-c2ccc(N3CCN(C4COC4)CC3)c(Cl)c2)cc2ncn(C3CC3)c12)[C@H]1CNC(=O)C1 [(R)-4-((R)-1-((6-(3-chloro-4-(4-(oxetan-3-yl)piperazin-1-yl)phenyl)-3-cyclopropyl-3H-imidazo[4,5-c]pyridin-4-yl)oxy)ethyl)pyrrolidin-2-one] | 2.76
24 | C[C@@H](Oc1nc(-c2ccc(N3CCN(C4COC4)CC3)nc2)cc2ncn(C(F)F)c12)[C@H]1CNC(=O)C1 [(R)-4-((R)-1-((3-(difluoromethyl)-6-(6-(4-(oxetan-3-yl)piperazin-1-yl)pyridin-3-yl)-3H-imidazo[4,5-c]pyridin-4-yl)oxy)ethyl)pyrrolidin-2-one] | 2.9
25 | C[C@@H](Oc1nc(-c2ccc3c(c2)NC(=O)C32CCN(S(C)(=O)=O)CC2)cc2ncn(C3CC3)c12)[C@H]1CNC(=O)C1 [6-(3-cyclopropyl-4-((R)-1-((R)-5-oxopyrrolidin-3-yl)ethoxy)-3H-imidazo[4,5-c]pyridin-6-yl)-1′-(methylsulfonyl)spiro[indoline-3,4′-piperidin]-2-one] | 1.08
26 | C[C@@H](Oc1nc(-c2ccc(N3CCn4c(nnc4C(F)(F)F)C3)cc2)cc2ncn(C3CC3)c12)[C@H]1CNC(=O)C1 [(R)-4-((R)-1-((3-cyclopropyl-6-(4-(3-(trifluoromethyl)-5,6-dihydro-[1,2,4]triazolo[4,3-a]pyrazin-7(8H)-yl)phenyl)-3H-imidazo[4,5-c]pyridin-4-yl)oxy)ethyl)pyrrolidin-2-one] | 2.17
27 | C[C@@H](Oc1nc(-c2cnc3c(c2)N(C)C(=O)C3(C)C)cc2ncn(C3CC3)c12)[C@H]1CNC(=O)C1 [6-(3-cyclopropyl-4-((R)-1-((R)-5-oxopyrrolidin-3-yl)ethoxy)-3H-imidazo[4,5-c]pyridin-6-yl)-1,3,3-trimethyl-1H-pyrrolo[3,2-b]pyridin-2(3H)-one] | 8.85
28 | C[C@@H](Oc1nc(-c2cnn(C3COC3)c2)cc2ncn(C3CC3)c12)[C@H]1CNC(=O)C1 | 4.65
